Test results taken from a melting point compilation (Tetko et al.; mined from patent text by program, amines drawn as free bases though some values may be those of a salt).

| Structure (SMILES) | melting point |
| --- | --- |
| Cc1c(C#Cc2ccc(C(F)(F)F)cc2)ccc(N)c1C#N | 136 to 138 °C |
| COC(=O)C(C)(C)Cc1c(C(=O)C2CC2)c2cc(OCc3ccc4ccccc4n3)c(C(=O)C3CC3)cc2n1Cc1ccc(Cl)cc1 | 166 to 167 °C |
| N#Cc1c(Cl)cccc1CSCCNC(=O)c1c(Cl)cccc1Cl | 166 to 168 °C |
| CCOC(=O)Cc1cc(Br)c(SC(=O)N(C)C)c(Br)c1 | 105 to 107 °C |
| Cc1ccc(C(N)=O)cc1Br | 178 to 179 °C |
| Cc1cc(N2CC=C(C(N)=O)CC2)c2cccc(Br)c2n1 | 225 to 227 °C |
| CCOC(=O)c1cnn2c(O)cc(-c3ccc(Cl)cc3)nc12 | 190 to 192 °C |
| O=C(O)COc1ccc(-c2nc3ncccc3[nH]2)c(O)c1 | 235 °C |
| Cc1oc2c(C)c(C)c(OCc3ccccc3)c(C)c2c1CN1CCC[C@H]1CO | 98 to 100 °C |
| CCOC(=O)CCC(=O)[C@H](Cc1ccccc1)NC(=O)OC(C)(C)C | 56 to 58 °C |
| Oc1c2c(nn1-c1nc3ccc(F)cc3s1)CCc1ccccc1-2 | 246 to 247 °C |
| CS(=O)(=O)c1ccc(C2=C(c3ccc(-c4cscn4)cc3)C(=O)OC2)cc1F | 218 °C |
| O=[N+]([O-])c1ccc(-c2oncc2CCCO)cc1 | 132 to 133 °C |
| COc1cc(Cc2cnc(N)nc2N)cc2c1OC(C)(C)C=C2c1cccc([N+](=O)[O-])c1 | 253 to 254 °C |
| ClC(Cl)(Oc1ccccc1)Oc1ccccc1 | 42 to 44 °C |
| Cc1cc([C@H]2CN3C(=O)N(c4cc(Cl)nc(Cl)c4)C(=O)[C@]3(Cc3ccc(OC(F)(F)F)cc3)C2)c(C)[nH]1 | 112 °C |
| O=c1ccn(C/C=C/COC(c2ccccc2)(c2ccccc2)c2ccccc2)c(=O)[nH]1 | 70 to 72 °C |
| CNC(=S)NS(=O)(=O)c1cc2c(cc1OC)OC(C)(C)C(NC(=O)c1cc(F)ccc1OC)C2 (stereo unspecified) | 222 °C |
| CC12CCC(C1)C1(C)Oc3ccc(C(=O)COc4ccc(C(=O)O)cc4)cc3C21C (stereo unspecified) | 188 °C |
| O=C(O)c1cc(Cl)cc(I)c1O | 160 to 163 °C |
| CC(=O)Oc1ccc(-c2cnc(C)[nH]c2=O)cc1OC(C)=O | 178 to 179 °C |
| O=C(NCC1(c2ccccc2)CCCCC1)Nc1cccc(Cl)c1Cl | 214 to 215 °C |
| CCOC(=O)c1csc(Br)n1 | 66 to 68 °C |
| Cc1nnc2ccc(-c3cccc(N4CCCCC4=O)c3)nn12 | 204 to 207 °C |
| Cc1ccc(Cn2c(NC3CCN(C)CC3)nc3cccnc32)o1 | 131 °C |
| Cc1ccc(Cn2ccc(OCc3ccccc3)cc2=O)cc1 | 143 °C |

| Structure (SMILES) | melting point |
| --- | --- |
| O=C1Nc2ccccc2C2=NC(CN3CCN(c4ccccc4)CC3)CN12 (stereo unspecified) | 257 to 258 °C |
| S=C(Oc1ccccc1)c1ccccc1 | 56 °C |
| O=C(Nc1cccc(Cl)c1)NN1CC=CCC1 | 146 to 147 °C |
| Nc1nc2c(s1)CC(N1CCN(c3ccc(Br)cn3)CC1)CC2 (stereo unspecified) | 246 to 248 °C |
| CCn1c(=O)[nH]c(=O)c2c(-c3ccc(F)cc3)c(/C=C/C=O)c(C3CC3)nc21 | 236 °C |
| COCCOc1cc(N(C)S(=O)(=O)c2ccccn2)c2[nH]c(C3=NCC(CC(N)=O)S3)cc2c1 (stereo unspecified) | 100 to 102 °C |
| CCCCN1CCC(c2c[nH]c3ccc(NS(C)(=O)=O)cc23)CC1 | 78 °C |
| CCSC1CN2CCC1CC2 (stereo unspecified) | 101 to 102 °C |
| Cc1ccc(S(=O)(=O)OCCOc2ccc3[nH]nc(S(=O)(=O)c4ccccc4)c3c2)cc1 | 174 to 177 °C |
| CC1(C2CCCC2)Cc2cc(OCC(=O)O)c(Cl)c(Cl)c2C1=NO (stereo unspecified) | 230 °C |
| CCCc1c2c(c([N+](=O)[O-])c3c(=O)cc(C(=O)O)oc13)CCCC2 | 265 to 267 °C |
| CS(=O)(=O)N[C@H]1CC[C@H](CCN2CCC(c3cccc4c3CCO4)CC2)CC1 | 152 °C |
| COC(=C1C2CC3CC1CC(Cl)(C3)C2)c1cc(O)cc(Cl)c1 | 130 °C |
| COc1cc(C=C2OC(C)=CC2=O)ccc1O | 168 to 170 °C |
| ClC1=Nc2cc(Cl)ccc2Oc2cscc21 | 180 to 182 °C |
| COC(=O)c1ccc2c(Cl)c(C(=O)Cl)sc2c1 | 259 to 260 °C |
| CCOC(=O)/C=C/c1ccc(OCCOCCOC)cc1Oc1ncc(C(F)(F)F)cc1Cl | 76.6 to 76.8 °C |
| CC(N)Cc1ccc(OCC(=O)NCCc2ccc(O)cc2)cc1 (stereo unspecified) | 160 to 163 °C |
| O=C(OCCOc1ccc(OCCO)cc1)c1ccc(O)c(Cl)c1 | 87 to 88 °C |
| CCN(CC)c1cccc(-c2ccc(C(=O)O)c(=O)[nH]2)c1 | 256 to 258 °C |
| CNCc1ccc2c(Br)c(OC)ccc2c1 | 41 to 45 °C |
| COc1ccc(C2(C)Cc3cc(O)c(Cl)c(Cl)c3C2=O)cc1 (stereo unspecified) | 149 to 156 °C |
| COc1ccccc1NS(=O)(=O)c1cccc(C=CC(=O)NO)c1 | 181 °C |
| CCCc1c(OCCCCCC(=O)c2ccc3cc(OC)c(OC)cc3c2)ccc(C(=O)O)c1O | 144 to 146 °C |
| CCOC(=O)c1ncn2c1CN(Cc1ccc(OC)cc1OC)C(=O)c1sccc1-2 | 168 °C |
